ChEMBL document CHEMBL1121997, “2-beta-D-Ribofuranosylthiazole-4-carboxamide, a novel potential antitumor agent for lung tumors and metastases” (1982)

What was measured:
Assay type in all cases: functional
[1] = test system: Mus musculus; experiment: Number of survivors out of 10 mice after 60 days infected with lewis lung carcinoma at the dose of 12.5 mg/kg in experiment 4
[2] = test system: Mus musculus; experiment: Number of survivors out of 10 mice after 60 days infected with lewis lung carcinoma at the dose of 400 mg/kg in experiment 3
[3] = test system: Mus musculus; experiment: Number of survivors out of 10 mice after 60 days infected with lewis lung carcinoma at the dose of 100 mg/kg in experiment 2
[4] = test system: Mus musculus; experiment: Effect of compound on life span of mice inoculated intravenously with lewis lung carcinoma at the dose of 25 mg/kg in experiment 3; settings: route intravenous
[5] = test system: Mus musculus; experiment: Effect of compound on life span of mice inoculated intravenously with lewis lung carcinoma at the dose of 50 mg/kg in experiment 3; settings: route intravenous
[6] = test system: Mus musculus; experiment: Effect of compound on life span of mice inoculated intravenously with lewis lung carcinoma at the dose of 100 mg/kg in experiment 2; settings: route intravenous
[7] = test system: Mus musculus; experiment: Average body weight in grams on day 5 minus average body weight on day 1 at the dose of 50 mg/kg in experiment 1
[8] = test system: Mus musculus; experiment: Average body weight in grams on day 5 minus average body weight on day 1 at the dose of 100 mg/kg in experiment 3
[9] = test system: Mus musculus; experiment: Number of survivors out of 10 mice after 60 days infected with lewis lung carcinoma at the dose of 200 mg/kg in experiment 1
[10] = test system: Mus musculus; experiment: Average body weight in grams on day 5 minus average body weight on day 1 at the dose of 400 mg/kg in experiment 3
[11] = test system: Mus musculus; experiment: Average body weight in grams on day 5 minus average body weight on day 1 at the dose of 100 mg/kg in experiment 2
[12] = test system: Mus musculus; experiment: Effect of compound on life span of mice inoculated intravenously with lewis lung carcinoma at the dose of 6.25 mg/kg in experiment 4; settings: route intravenous
[13] = test system: Mus musculus; experiment: Effect of compound on life span of mice inoculated intravenously with lewis lung carcinoma at the dose of 200 mg/kg in experiment 3; settings: route intravenous
[14] = test system: Mus musculus; experiment: Average body weight in grams on day 5 minus average body weight on day 1 at the dose of 800 mg/kg in experiment 3
[15] = test system: Mus musculus; experiment: Number of survivors out of 10 mice after 60 days infected with lewis lung carcinoma at the dose of 3.12 mg/kg in experiment 4
[16] = test system: Mus musculus; experiment: Average body weight in grams on day 5 minus average body weight on day 1 at the dose of 200 mg/kg in experiment 3
[17] = test system: Mus musculus; experiment: Effect of compound on life span of mice inoculated intravenously with lewis lung carcinoma at the dose of 12.5 mg/kg in experiment 4; settings: route intravenous
[18] = test system: Mus musculus; experiment: Effect of compound on life span of mice inoculated intravenously with lewis lung carcinoma at the dose of 800 mg/kg in experiment 1; settings: route intravenous
[19] = test system: Mus musculus; experiment: Number of survivors out of 10 mice after 60 days infected with lewis lung carcinoma at the dose of 25 mg/kg in experiment 1
[20] = test system: Mus musculus; experiment: Average body weight in grams on day 5 minus average body weight on day 1 at the dose of 50 mg/kg in experiment 3
[21] = test system: Mus musculus; experiment: Effect of compound on life span of mice inoculated intravenously with lewis lung carcinoma at the dose of 25 mg/kg in experiment 4; settings: route intravenous
[22] = test system: Mus musculus; experiment: Average body weight in grams on day 5 minus average body weight on day 1 at the dose of 1.56 mg/kg in experiment 4
[23] = test system: Mus musculus; experiment: Number of survivors out of 10 mice after 60 days infected with lewis lung carcinoma at the dose of 200 mg/kg in experiment 2
[24] = test system: Mus musculus; experiment: Number of survivors out of 10 mice after 60 days infected with lewis lung carcinoma at the dose of 400 mg/kg in experiment 1
[25] = test system: Mus musculus; experiment: Effect of compound on life span of mice inoculated intravenously with lewis lung carcinoma at the dose of 100 mg/kg in experiment 1; settings: route intravenous
[26] = test system: Mus musculus; experiment: Average body weight in grams on day 5 minus average body weight on day 1 at the dose of 200 mg/kg in experiment 1
[27] = test system: Mus musculus; experiment: Average body weight in grams on day 5 minus average body weight on day 1 at the dose of 3.12 mg/kg in experiment 4
[28] = test system: Mus musculus; experiment: Number of survivors out of 10 mice after 60 days infected with lewis lung carcinoma at the dose of 800 mg/kg in experiment 1
[29] = test system: Mus musculus; experiment: Number of survivors out of 10 mice after 60 days infected with lewis lung carcinoma at the dose of 25 mg/kg in experiment 2
[30] = test system: Mus musculus; experiment: Average body weight in grams on day 5 minus average body weight on day 1 at the dose of 25 mg/kg in experiment 4
[31] = test system: Mus musculus; experiment: Average body weight in grams on day 5 minus average body weight on day 1 at the dose of 25 mg/kg in experiment 2
[32] = test system: Mus musculus; experiment: Number of survivors out of 10 mice after 60 days infected with lewis lung carcinoma at the dose of 50 mg/kg in experiment 3
[33] = test system: Mus musculus; experiment: Number of survivors out of 10 mice after 60 days infected with lewis lung carcinoma at the dose of 800 mg/kg in experiment 2
[34] = test system: Mus musculus; experiment: Effect of compound on life span of mice inoculated intravenously with lewis lung carcinoma at the dose of 400 mg/kg in experiment 1; settings: route intravenous
[35] = test system: Mus musculus; experiment: Average body weight in grams on day 5 minus average body weight on day 1 at the dose of 200 mg/kg in experiment 2
[36] = test system: Mus musculus; experiment: Number of survivors out of 10 mice after 60 days infected with lewis lung carcinoma at the dose of 200 mg/kg in experiment 3
[37] = test system: Mus musculus; experiment: Effect of compound on life span of mice inoculated intravenously with lewis lung carcinoma at the dose of 800 mg/kg in experiment 2; settings: route intravenous
[38] = test system: Mus musculus; experiment: Average body weight in grams on day 5 minus average body weight on day 1 at the dose of 25 mg/kg in experiment 3
[39] = test system: Mus musculus; experiment: Effect of compound on life span of mice inoculated intravenously with lewis lung carcinoma at the dose of 50 mg/kg in experiment 2; settings: route intravenous
[40] = test system: Mus musculus; experiment: Number of survivors out of 10 mice after 60 days infected with lewis lung carcinoma at the dose of 100 mg/kg in experiment 1
[41] = test system: Mus musculus; experiment: Average body weight in grams on day 5 minus average body weight on day 1 at the dose of 400 mg/kg in experiment 1
[42] = test system: Mus musculus; experiment: Effect of compound on life span of mice inoculated intravenously with lewis lung carcinoma at the dose of 1.56 mg/kg in experiment 4; settings: route intravenous
[43] = test system: Mus musculus; experiment: Number of survivors out of 10 mice after 60 days infected with lewis lung carcinoma at the dose of 50 mg/kg in experiment 1
[44] = test system: Mus musculus; experiment: Average body weight in grams on day 5 minus average body weight on day 1 at the dose of 800 mg/kg in experiment 2
[45] = test system: Mus musculus; experiment: Average body weight in grams on day 5 minus average body weight on day 1 at the dose of 6.25 mg/kg in experiment 4
[46] = test system: Mus musculus; experiment: Number of survivors out of 10 mice after 60 days infected with lewis lung carcinoma at the dose of 6.25 mg/kg in experiment 4
[47] = test system: Mus musculus; experiment: Number of survivors out of 10 mice after 60 days infected with lewis lung carcinoma at the dose of 0.78 mg/kg in experiment 4
[48] = test system: Mus musculus; experiment: Number of survivors out of 10 mice after 60 days infected with lewis lung carcinoma at the dose of 25 mg/kg in experiment 3
[49] = test system: Mus musculus; experiment: Effect of compound on life span of mice inoculated intravenously with lewis lung carcinoma at the dose of 3.12 mg/kg in experiment 4; settings: route intravenous
[50] = test system: Mus musculus; experiment: Number of survivors out of 10 mice after 60 days infected with lewis lung carcinoma at the dose of 800 mg/kg in experiment 3
[51] = test system: Mus musculus; experiment: Effect of compound on life span of mice inoculated intravenously with lewis lung carcinoma at the dose of 0.78 mg/kg in experiment 4; settings: route intravenous
[52] = test system: Mus musculus; experiment: Number of survivors out of 10 mice after 60 days infected with lewis lung carcinoma at the dose of 1.56 mg/kg in experiment 4
[53] = test system: Mus musculus; experiment: Average body weight in grams on day 5 minus average body weight on day 1 at the dose of 25 mg/kg in experiment 1
[54] = test system: Mus musculus; experiment: Number of survivors out of 10 mice after 60 days infected with lewis lung carcinoma at the dose of 100 mg/kg in experiment 3
[55] = test system: Mus musculus; experiment: Average body weight in grams on day 5 minus average body weight on day 1 at the dose of 400 mg/kg in experiment 2
[56] = test system: Mus musculus; experiment: Average body weight in grams on day 5 minus average body weight on day 1 at the dose of 12.5 mg/kg in experiment 4
[57] = test system: Mus musculus; experiment: Number of survivors out of 10 mice after 60 days infected with lewis lung carcinoma at the dose of 400 mg/kg in experiment 2
[58] = test system: Mus musculus; experiment: Number of survivors out of 10 mice after 60 days infected with lewis lung carcinoma at the dose of 50 mg/kg in experiment 2
[59] = test system: Mus musculus; experiment: Average body weight in grams on day 5 minus average body weight on day 1 at the dose of 800 mg/kg in experiment 1
[60] = test system: Mus musculus; experiment: Effect of compound on life span of mice inoculated intravenously with lewis lung carcinoma at the dose of 800 mg/kg in experiment 3; settings: route intravenous
[61] = test system: Mus musculus; experiment: Average body weight in grams on day 5 minus average body weight on day 1 at the dose of 0.78 mg/kg in experiment 4
[62] = test system: Mus musculus; experiment: Average body weight in grams on day 5 minus average body weight on day 1 at the dose of 100 mg/kg in experiment 1
[63] = test system: Mus musculus; experiment: Effect of compound on life span of mice inoculated intravenously with lewis lung carcinoma at the dose of 400 mg/kg in experiment 3; settings: route intravenous
[64] = test system: Mus musculus; experiment: Average body weight in grams on day 5 minus average body weight on day 1 at the dose of 50 mg/kg in experiment 2
[65] = test system: Mus musculus; experiment: Number of survivors out of 10 mice after 60 days infected with lewis lung carcinoma at the dose of 25 mg/kg in experiment 4

Structure (SMILES): NC(=O)c1csc([C@@H]2O[C@H](CO)[C@@H](O)[C@H]2O)n1 [TIAZOFURIN]
- Survivors [1]: 7
- Survivors [2]: 6
- Survivors [3]: 9
- Median life span [4]: 47 days
- Median life span [5]: 55 days
- Median life span [6]: 46 days
- Weight change [7]: 2.2 g
- Weight change [8]: 0.9 g
- Survivors [9]: 10
- Weight change [10]: 0.5 g
- Weight change [11]: 1.3 g
- Median life span [12]: 25.3 days
- Median life span [13]: 16 days
- Weight change [14]: -0.8 g
- Survivors [15]: 0
- Weight change [16]: 0.7 g
- Median life span [17]: 39.5 days
- Median life span [18]: 11.3 days
- Survivors [19]: 10
- Weight change [20]: 1.2 g
- Median life span [21]: 7 days
- Weight change [22]: 1.7 g
- Survivors [23]: 10
- Survivors [24]: 7
- Median life span [25]: 17 days
- Weight change [26]: 1.3 g
- Weight change [27]: 1.8 g
- Survivors [28]: 6
- Survivors [29]: 10
- Weight change [30]: 1.5 g
- Weight change [31]: 1 g
- Survivors [32]: 9
- Survivors [33]: 1
- Median life span [34]: 9.5 days
- Weight change [35]: 0.7 g
- Survivors [36]: 8
- Median life span [37]: 8.5 days
- Weight change [38]: 1.1 g
- Median life span [39]: 47 days
- Survivors [40]: 9
- Weight change [41]: 1.2 g
- Median life span [42]: 23 days
- Survivors [43]: 10
- Weight change [44]: -2.1 g
- Weight change [45]: 2.3 g
- Survivors [46]: 0
- Survivors [47]: 0
- Survivors [48]: 7
- Median life span [49]: 22.8 days
- Survivors [50]: 0
- Median life span [51]: 20 days
- Survivors [52]: 0
- Weight change [53]: 1.2 g
- Survivors [54]: 10
- Weight change [55]: 0.4 g
- Weight change [56]: 1.9 g
- Survivors [57]: 10
- Survivors [58]: 9
- Weight change [59]: 1.3 g
- Median life span [60]: 11.3 days
- Weight change [61]: 2 g
- Weight change [62]: 1.3 g
- Median life span [63]: 20 days
- Weight change [64]: 1.6 g
- Survivors [65]: 9
